Test results reported in ChEMBL document CHEMBL4477256, “Newly synthesized bis-benzimidazole compound 8 induces apoptosis, autophagy and reactive oxygen species generation in HeLa cells” (Bioorg Med Chem Lett, 2016).
The source made the active and inactive calls.

Legend:
Type in all cases: functional, cell-based
[1] = test system: HeLa; experiment: Induction of autophagy in human HeLa cells after 24 hrs by MDC staining-based flow cytometry
[2] = test system: HeLa; experiment: Induction of apoptosis in human HeLa cells assessed as increase in cytochrome c release from mitochondria to cytosol at 5 to 20 uM after 24 hrs by Western blot analysis
[3] = test system: HeLa; experiment: Induction of apoptosis in human HeLa cells assessed as increase in subG0/G1 ratio in presence of NAC by PI staining-based flow cytometry
[4] = test system: HeLa; experiment: Upregulation of beclin 1 in human HeLa cells at 5 to 20 uM after 24 hrs in presence of 3MA by Western blot analysis
[5] = test system: HeLa; experiment: Induction of ROS generation in human HeLa cells at 10 to 20 uM after 24 hrs by H2DCF-DA staining-based flow cytometry
[6] = test system: HeLa; experiment: Induction ROS generation in human HeLa cells in presence of ZVAD by flow cytometry
[7] = test system: HeLa; experiment: Induction of apoptosis in human HeLa cells assessed as increase in subG0/G1 ratio at 10 uM after 24 hrs in presence of ZVAD by PI staining-based flow cytometry
[8] = test system: HeLa; experiment: Induction of autophagy in human HeLa cells assessed as conversion of LC3 1 to LC3 2 at 5 to 20 uM after 24 hrs in presence of 3MA by Western blot analysis
[9] = test system: HeLa; experiment: Cytotoxicity against human HeLa cells assessed as inhibition of cell growth after 12 to 48 hrs by MTT assay
[10] = test system: HeLa; experiment: Induction of apoptosis in human HeLa cells assessed as reduction in mitochondrial membrane potential at 5 to 20 uM after 24 hrs by Rhodamine123 staining-based flow cytometry
[11] = test system: HeLa; experiment: Upregulation of FasL in human HeLa cells at 5 to 20 uM after 24 hrs by Western blot analysis
[12] = test system: HeLa; experiment: Upregulation of caspase-8 in human HeLa cells at 5 to 20 uM after 24 hrs by Western blot analysis
[13] = test system: HeLa; experiment: Cytotoxicity against human HeLa cells assessed as inhibition of cell growth at 5 to 20 uM by MTT assay; settings: TDE = time-dependent effect
[14] = test system: HeLa; experiment: Upregulation of caspase-3 in human HeLa cells at 5 to 20 uM after 24 hrs by Western blot analysis
[15] = test system: HeLa; experiment: Induction of autophagy in human HeLa cells preincubated at 10 uM in presence of ZVAD for 24 hrs by MDC staining-based flow cytometry
[16] = test system: HeLa; experiment: Induction ROS generation in human HeLa cells in presence of 3MA by flow cytometry
[17] = test system: HeLa; experiment: Induction of apoptosis in human HeLa cells assessed as formation of apoptotic bodies at 10 uM after 24 hrs by phase contrast microscopic analysis
[18] = test system: HeLa; experiment: Upregulation of Fas in human HeLa cells at 5 to 20 uM after 24 hrs by Western blot analysis
[19] = test system: HeLa; experiment: Induction of autophagy in human HeLa cells at 10 uM after 24 hrs by MDC staining-based fluorescence microscopic analysis
[20] = test system: HeLa; experiment: Induction of apoptosis in human HeLa cells assessed as nuclear fragmentation at 10 uM after 24 hrs by AO staining-based microscopic analysis
[21] = test system: HeLa; experiment: Induction of apoptosis in human HeLa cells assessed as increase in subG0/G1 ratio after 24 hrs by PI staining-based flow cytometry
[22] = test system: HeLa; experiment: Induction of autophagy in human HeLa cells after 24 hrs in presence of 3MA by MDC staining-based flow cytometry
[23] = test system: HeLa; experiment: Upregulation of beclin 1 in human HeLa cells at 5 to 20 uM after 24 hrs by Western blot analysis
[24] = test system: HeLa; experiment: Cytotoxicity against human HeLa cells assessed as inhibition of cell growth after 24 hrs in presence of 3MA by MTT assay
[25] = test system: HeLa; experiment: Induction of ROS generation in human HeLa cells at up to 5 uM after 24 hrs by H2DCF-DA staining-based flow cytometry
[26] = test system: HeLa; experiment: Induction of apoptosis in human HeLa cells assessed as chromatin condensation at 10 uM after 24 hrs by AO staining-based microscopic analysis
[27] = test system: HeLa; experiment: Induction of autophagy in human HeLa cells assessed as conversion of LC3 1 to LC3 2 at 5 to 20 uM after 24 hrs by Western blot analysis
[28] = test system: HeLa; experiment: Induction of autophagy in human HeLa cells in presence of NAC by MDC staining-based flow cytometry
[29] = test system: HeLa; experiment: Induction of apoptosis in human HeLa cells assessed as increase in subG0/G1 ratio preincubated with 3MA for 1 hr followed by compound treatment at 10 uM for 24 hrs by PI staining-based flow cytometry
[30] = test system: HeLa; experiment: Upregulation of FADD in human HeLa cells at 5 to 20 uM after 24 hrs by Western blot analysis
[31] = test system: HeLa; experiment: Induction of ROS generation in human HeLa cells at 10 uM in presence of NAC by H2DCF-DA staining-based flow cytometry
[32] = test system: HeLa; experiment: Induction of apoptosis in human HeLa cells assessed as increase in Bax/Bcl-2 ratio at 5 to 20 uM after 24 hrs by Western blot analysis

COc1ccc(-c2nc3cc(Oc4ccc5[nH]c(-c6ccc(OC)cc6)nc5c4)ccc3[nH]2)cc1
inactive: Activity [3] | Activity [4] | Activity [5] | Activity [6] | Activity [7] | Activity [8] | Activity [16] | Activity [22] | Activity [24] | Activity [28] | Activity [29] | Activity [31]
active: Activity [1] Dose-dependent effect | Activity [2] | Activity [9] Dose-dependent effect | Activity [10] | Activity [11] | Activity [12] | inhibition [13] Tde | Activity [14] | Activity [15] | Activity [17] | Activity [18] | Activity [19] | Activity [20] | Activity [21] Dose-dependent effect | Activity [23] | Activity [25] | Activity [26] | Activity [27] | Activity [30] | Activity [32]
